Source: patent US6428817B1, “Companion animal therapeutic treat” (priority 2001, dated 2002)

Legend:
[1] = test system: cartilage degradation; conditions: mammals; cited from earlier work
[2] = test system: bovine nasal cartilage explants; experiment: Proteoglycan degradation in bovine nasal cartilage explants, basal and TNF alpha stimulated; assay for sulfated glycosaminoglycans; type: cell-based; conditions: EGCg 22 μM, 5 days culture, with or without recombinant human tumor necrosis factor alpha 3 nM
Procedure: See, Haqqi, et al., Proc. Natl. Acad. Sci., USA, 96:4524-29 (1999). […] Id. In an experiment, purified EGCg, from Sigma Chemical Supply, St. Louis, Mo., was placed with bovine nasal cartilage explants at a concentration of22 μM. This mixture was cultured for 5 days in the presence or absence of the pro-inflammatory cytokine, recombinant human tumor necrosis factor alpha at 3 nM. The inhibition of both the basal and stimulated protcoglycan degradation by EGCg was measured using a calorimetric assay for sulfated glycosaminoglycans. See, Farndale, et al., Biochem. Biophys. Acta, 4:883 (1986).

Substance: epigallocatechin-3-gallate [EGCg]
- inhibition of cartilage degradation [1]: inhibitor of cartilage degradation
- inhibition of basal and stimulated proteoglycan degradation (cartilage breakdown) [2]: potent inhibitor of cartilage breakdown
